# Assay results from patent US6444477B1, “Assay method for detecting 5-HT2B antagonists” (Pharmagene Laboratories Limited, priority 2000, dated 2002).
# Like-named read-outs stand apart in the source and are kept apart here. Marks after values point to notes of the source that are not given here.
# How the values were obtained:
# human 5-HT4 receptor [1] = biological target: T1, human 5-HT4 receptor (Homo sapiens, UniProt Q13639); conditions: cited from earlier work
# human 5-HT2A receptor [2] = biological target: T2, human 5-HT2A receptor (Homo sapiens, UniProt P28223); conditions: cited from earlier work
# T2 sequence (P28223 whole entry): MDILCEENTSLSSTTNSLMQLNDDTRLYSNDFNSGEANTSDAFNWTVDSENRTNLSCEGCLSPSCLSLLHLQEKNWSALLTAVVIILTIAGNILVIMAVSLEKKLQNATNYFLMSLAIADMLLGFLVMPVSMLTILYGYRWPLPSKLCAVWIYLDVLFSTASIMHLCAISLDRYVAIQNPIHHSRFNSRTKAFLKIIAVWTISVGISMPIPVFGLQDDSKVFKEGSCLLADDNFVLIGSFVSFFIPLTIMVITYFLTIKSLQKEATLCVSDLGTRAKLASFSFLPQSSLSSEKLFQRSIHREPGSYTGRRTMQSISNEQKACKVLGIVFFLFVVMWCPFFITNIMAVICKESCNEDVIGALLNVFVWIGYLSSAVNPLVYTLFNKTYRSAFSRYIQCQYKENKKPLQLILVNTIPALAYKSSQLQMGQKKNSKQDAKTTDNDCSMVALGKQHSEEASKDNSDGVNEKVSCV
# [3] = biological target: 5-HT receptor in human colon longitudinal muscle (Homo sapiens, UniProt P41595); test: 5-HT-induced potentiation of electrically stimulated contractions of human colon longitudinal muscle strips; assay type: cell-based
# Chain of 5-HT receptor in human colon longitudinal muscle (Homo sapiens, UniProt P41595) (P41595 whole entry): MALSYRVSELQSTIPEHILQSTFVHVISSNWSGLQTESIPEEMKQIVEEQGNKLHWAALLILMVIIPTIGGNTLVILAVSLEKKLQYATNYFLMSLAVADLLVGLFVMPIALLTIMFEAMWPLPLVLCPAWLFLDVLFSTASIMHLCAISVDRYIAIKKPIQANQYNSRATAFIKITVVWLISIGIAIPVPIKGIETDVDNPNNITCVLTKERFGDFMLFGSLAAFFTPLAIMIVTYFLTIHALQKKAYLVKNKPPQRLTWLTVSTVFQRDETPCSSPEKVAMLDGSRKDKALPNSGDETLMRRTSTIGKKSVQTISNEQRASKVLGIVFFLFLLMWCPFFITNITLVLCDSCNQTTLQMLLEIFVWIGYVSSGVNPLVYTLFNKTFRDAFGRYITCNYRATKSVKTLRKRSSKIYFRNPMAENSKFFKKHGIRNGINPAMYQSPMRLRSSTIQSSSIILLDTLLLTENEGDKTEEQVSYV
# 5-HT2B receptor [4] = biological target: T3, 5-HT2B receptor (Homo sapiens, UniProt P41595); conditions: cited from earlier work
# Target sequence in this assay (P41595 whole entry): as above
# human 5-HT2C receptor [5] = biological target: T4, human 5-HT2C receptor (Homo sapiens, UniProt P28335); conditions: cited from earlier work
# T4 sequence (P28335 33-458): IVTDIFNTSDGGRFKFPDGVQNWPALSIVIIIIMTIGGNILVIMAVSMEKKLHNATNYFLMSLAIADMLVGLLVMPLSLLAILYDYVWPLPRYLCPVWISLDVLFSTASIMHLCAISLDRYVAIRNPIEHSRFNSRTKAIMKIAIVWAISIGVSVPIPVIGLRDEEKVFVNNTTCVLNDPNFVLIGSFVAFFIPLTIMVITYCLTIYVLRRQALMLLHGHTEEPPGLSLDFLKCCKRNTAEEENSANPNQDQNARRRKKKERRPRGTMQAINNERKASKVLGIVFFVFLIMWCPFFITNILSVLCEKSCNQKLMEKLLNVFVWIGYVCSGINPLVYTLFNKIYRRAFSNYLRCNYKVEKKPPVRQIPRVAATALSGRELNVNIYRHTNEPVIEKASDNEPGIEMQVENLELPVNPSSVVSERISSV
# 5-HT2B receptor [6] = biological target: T3, 5-HT2B receptor; conditions: cited from earlier work; remark: listed apart in the source
# Target sequence in this assay (P41595 whole entry): as the sequence (P41595 whole entry) above
# human 5-HT4 receptor [7] = biological target: T1, human 5-HT4 receptor; conditions: marked #; cited from earlier work
# human 5-HT2A receptor [8] = biological target: T2, human 5-HT2A receptor; conditions: cited from earlier work; remark: listed apart in the source
# human 5-HT2C receptor [9] = biological target: T4, human 5-HT2C receptor; conditions: cited from earlier work; remark: listed apart in the source
# 5-HT2B receptor [10] = biological target: T3, 5-HT2B receptor; conditions: cited from earlier work; remark: listed apart in the source
# Target sequence in this assay (P41595 whole entry, looked up): as the sequence (P41595 whole entry) above
# [11] = system: 5-HT receptor in human colon longitudinal muscle; test: 5-HT-induced potentiation of electrically stimulated contractions of human colon longitudinal muscle strips; assay type: cell-based
# T1 sequence (Q13639 whole entry): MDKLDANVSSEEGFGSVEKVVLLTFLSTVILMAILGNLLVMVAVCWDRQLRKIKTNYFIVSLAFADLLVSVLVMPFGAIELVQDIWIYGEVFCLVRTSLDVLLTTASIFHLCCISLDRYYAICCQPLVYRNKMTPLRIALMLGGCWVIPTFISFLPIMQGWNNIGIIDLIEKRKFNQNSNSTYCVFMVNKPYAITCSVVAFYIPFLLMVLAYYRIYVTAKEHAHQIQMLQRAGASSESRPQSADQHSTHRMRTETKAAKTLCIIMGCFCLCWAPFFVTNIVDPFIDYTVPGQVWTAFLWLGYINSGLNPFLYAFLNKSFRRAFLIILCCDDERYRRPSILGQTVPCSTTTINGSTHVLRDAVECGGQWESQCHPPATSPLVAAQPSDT
compound,measurement,setting,value
CSc1ccc2c(c1)C(N1CCN(C)CC1)Cc1ccccc1S2 (stereo not shown) [Methiothepin],pKB or pA2 for antagonists (*) at human 5-HT4 receptor,human 5-HT4 receptor [1],<6.0*
O=C(c1ccc(F)cc1)C1CCN(CCn2c(=O)[nH]c3ccccc3c2=O)CC1 [Ketanserin],pKB or pA2 for antagonists (*) at human 5-HT4 receptor,human 5-HT4 receptor [1]; marked *,4.7*
"Cc1cc(NC(=O)Nc2ccc3c(ccn3C)c2)sn1 [SB 204741, N-(1-methyl-5-indolyl)-N′-(3-methyl-5-isothiazolyl) urea]",pKB or pA2 for antagonists (*) at human 5-HT2A receptor,human 5-HT2A receptor [2],<5.0*
same,affinity at human 5-HT4 receptor,human 5-HT4 receptor [1]; neither * nor # printed,<5.0
same,Kb,[3],158 nM
same,antagonist potency against 5-HT response in human colon,[3],6.8
same,pKB or pA2 for antagonists (*) at human 5-HT2B receptor,5-HT2B receptor [4]; marked *,7.0*
Cc1cc2c(cc1Cl)N(C(=O)Nc1ccc(Oc3cccnc3C)nc1)CC2 [SB 242084],affinity from binding data (#) at human 5-HT2C receptor,human 5-HT2C receptor [5],<6.0^#
same,pKB estimate for antagonists at the 5-HT receptor in colon,"[3]; human colon longitudinal muscle, at least 3 concentrations (methiothepin a single concentration), at least 3 donors",6.3 ± 0.2
same,affinity from binding data (#) at human 5-HT2B receptor,5-HT2B receptor [6],7.0^#
same,affinity from binding data (#) at human 5-HT4 receptor,human 5-HT4 receptor [7],<5.0^#
same,affinity from binding data (#) at human 5-HT2A receptor,human 5-HT2A receptor [8],6.8^#
"CC(C)c1cc(-c2ccc(F)c3ccccc23)nc(N)n1 [RS 127445, 2-amino-4-(4-fluoronaphth-1-yl)-6-isopropylpyrimidine]",Kb,[3],0.398 nM
same,affinity from binding data (#) at human 5-HT2B receptor,5-HT2B receptor [6]; marked #,9.5^#
same,pKB or pA2 for antagonists (*) at human 5-HT2C receptor,human 5-HT2C receptor [9]; marked *,6.4*
"Cc1cc2c(cc1Cl)N(C(=O)Nc1cccc3ncccc13)CC2 [SB-215505, 6-chloro-5-methyl-N-(5-quinolyl)-2,3-dihydro-1H-indole-1-carboxamide]",potency as 5-HT2B receptor antagonist,5-HT2B receptor [10],9.9
same,selectivity for 5-HT2B over 5-HT2C and 5-HT2A receptors,5-HT2B receptor [10],100 fold
"Cn1ccc2cc3c(cc21)CCN3C(=O)Nc1cccnc1 [SB 206553, 5-methyl-1-(3-pyridylcarbamoyl)-1,2,3,5-tetrahydropyrrolo [2,3-f]indole]",Kb,[3],3.16 nM
same,antagonist potency against 5-HT response in human colon,[3],8.5
same,pKB or pA2 for antagonists (*) at human 5-HT2B receptor,5-HT2B receptor [4],9.0*
same,affinity from binding data (#) at human 5-HT2A receptor,human 5-HT2A receptor [8]; marked #,6.0^#
COC(=O)[C@@H]1[C@H]2C[C@H]3c4[nH]c5ccccc5c4CCN3C[C@@H]2CC[C@@H]1O [Yohimbine],affinity at human 5-HT2C receptor,human 5-HT2C receptor [9],<5.0
CC[C@@H](CO)NC(=O)[C@@H]1C=C2c3cccc4c3c(cn4C)C[C@H]2N(C)C1 [Methysergide],pKB or pA2 for antagonists (*) at human 5-HT4 receptor,human 5-HT4 receptor [1]; marked *,<5.0*
same,pKB or pA2 for antagonists (*) at human 5-HT2C receptor,human 5-HT2C receptor [9],8.9*
CC(N)Cc1c[nH]c2ccc(O)cc12 (stereo not drawn) [Alpha-Me5-HT],pEC50 for agonists at human 5-HT4 receptor,human 5-HT4 receptor [1],6.2
same,pEC50 for agonists at the 5-HT receptor in colon,"[3]; human colon longitudinal muscle, mean ± s.e.mean, at least 3 donors",8.5 ± 0.1
same,pEC50 for agonists at human 5-HT2B receptor,5-HT2B receptor [4],8.4
"N-(1-methyl-1H-indol-5-yl)N′-(-bezyl)-2,3,4,9-tetrahydro-1H-beta-carboline [LY-23728]",selectivity for 5-HT2B over 5-HT2C and 5-HT2A receptors,5-HT2B receptor [10],100 fold
"Cl.Cn1ccc2cc(NC(=O)Nc3cccnc3)ccc21 [SB-200646, N-(1-methyl-5-indolyl)-N′-(3-pyridyl)urea hydrochloride]",selectivity between 5-HT2B and 5-HT2C receptors,5-HT2B receptor [10],Non-selective
CN1[C@@H]2CC[C@H]1C[C@@H](OC(=O)C(CO)c1ccccc1)C2 (stereo partly shown) [atropine],effect on contractile responses of colon smooth muscle to electrical stimulation,[11],inhibited
COc1ccc2[nH]cc(CCN)c2c1 [5-MeOT],pEC50 for agonists at human 5-HT4 receptor,human 5-HT4 receptor [1],6.2
same,pEC50 for agonists at the 5-HT receptor in colon,[3],6.8 ± 0.2
same,pEC50 for agonists at human 5-HT2B receptor,5-HT2B receptor [4],7.6
NC1=N[C@H](O)[C@H]2[C@H]3O[C@]4(O)O[C@@H]([C@@H](O)[C@@]2(N1)[C@@H]4O)[C@]3(O)CO [tetrodotoxin],effect on contractile responses of colon smooth muscle to electrical stimulation,[11],inhibited
